Experimental findings from ChEMBL document CHEMBL5365423, “6-Azaspiro[2.5]octanes as small molecule agonists of the human glucagon-like peptide-1 receptor” (Bioorg Med Chem Lett, 2023) are described below.

Data set [1] addresses T1, Glucagon-like peptide 1 receptor (Homo sapiens, UniProt P43220). Nature of the data set: Agonist activity at GLP-1 receptor (unknown origin) expressed in CHO cells at 20 uM in presence of BETP by cAMP assay relative to control. To be noted: filed as agonist. The data set is classed as functional, cell-based.
Data set [2] is described as follows: Intrinsic clearance in human hepatocytes measured per million cells. The data set is classed as ADME, cell-based, Hepatocyte. Conditions: read-out: CLH.
Data set [3] in a line: Apparent permeability in MDCK cells by LC-MS/MS analysis. The data set is classed as ADME, cell-based, Canis lupus familiaris. To be noted: dog.
The target in data set [4] is T1, Glucagon-like peptide 1 receptor. In words: Displacement of [125I]-GLP1 from GLP-1 receptor (unknown origin) expressed in CHO cells membrane pre-incubated for 10 mins followed by [125I]-GLP1 addition and measured after 180 mins by microbeta scintillation counting method. The data set is classed as cell membranes.
A further data set addresses T2, CYP1A2 (Homo sapiens, UniProt P05177).
T2 sequence (P05177 whole entry): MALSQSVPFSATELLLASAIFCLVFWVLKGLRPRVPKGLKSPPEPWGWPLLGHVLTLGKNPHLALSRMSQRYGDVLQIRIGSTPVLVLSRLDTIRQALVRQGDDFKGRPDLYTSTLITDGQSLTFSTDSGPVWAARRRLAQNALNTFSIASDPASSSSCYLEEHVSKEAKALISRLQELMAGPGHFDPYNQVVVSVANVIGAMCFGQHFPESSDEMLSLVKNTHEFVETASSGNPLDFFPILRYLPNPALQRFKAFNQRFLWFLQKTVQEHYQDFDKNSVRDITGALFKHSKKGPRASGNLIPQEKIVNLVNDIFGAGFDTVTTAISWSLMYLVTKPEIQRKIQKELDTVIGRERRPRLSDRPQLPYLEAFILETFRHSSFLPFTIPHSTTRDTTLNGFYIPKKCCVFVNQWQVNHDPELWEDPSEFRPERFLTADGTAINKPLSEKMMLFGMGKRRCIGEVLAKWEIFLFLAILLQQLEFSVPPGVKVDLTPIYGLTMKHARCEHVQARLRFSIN
Nature of the data set: Inhibition of CYP1A2 (unknown origin) at 3 uM relative to control. The data set is classed as ADME.

The target in the next data set is CYP2D6 (Homo sapiens, UniProt P10635). In words: Inhibition of CYP2D6 (unknown origin) at 3 uM relative to control. The data set is classed as ADME.
Chain of CYP2D6 (P10635 whole entry): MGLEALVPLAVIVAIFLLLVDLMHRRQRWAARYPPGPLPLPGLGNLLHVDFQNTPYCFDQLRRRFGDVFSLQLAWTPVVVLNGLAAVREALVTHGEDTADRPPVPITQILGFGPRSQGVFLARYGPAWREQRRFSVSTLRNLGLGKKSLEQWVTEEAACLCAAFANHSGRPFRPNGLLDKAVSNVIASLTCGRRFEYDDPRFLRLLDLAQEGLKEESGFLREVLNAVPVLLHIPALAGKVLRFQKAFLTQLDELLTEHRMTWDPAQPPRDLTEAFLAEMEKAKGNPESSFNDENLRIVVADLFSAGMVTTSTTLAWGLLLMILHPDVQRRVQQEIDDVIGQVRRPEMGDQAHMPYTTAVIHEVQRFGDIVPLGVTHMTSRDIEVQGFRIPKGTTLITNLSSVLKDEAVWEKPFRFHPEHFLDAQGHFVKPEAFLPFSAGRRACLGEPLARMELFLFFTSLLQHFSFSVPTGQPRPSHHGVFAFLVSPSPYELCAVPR
The next data set deals with T3, CYP2C8 (Homo sapiens, UniProt P10632).
T3 sequence (P10632 whole entry): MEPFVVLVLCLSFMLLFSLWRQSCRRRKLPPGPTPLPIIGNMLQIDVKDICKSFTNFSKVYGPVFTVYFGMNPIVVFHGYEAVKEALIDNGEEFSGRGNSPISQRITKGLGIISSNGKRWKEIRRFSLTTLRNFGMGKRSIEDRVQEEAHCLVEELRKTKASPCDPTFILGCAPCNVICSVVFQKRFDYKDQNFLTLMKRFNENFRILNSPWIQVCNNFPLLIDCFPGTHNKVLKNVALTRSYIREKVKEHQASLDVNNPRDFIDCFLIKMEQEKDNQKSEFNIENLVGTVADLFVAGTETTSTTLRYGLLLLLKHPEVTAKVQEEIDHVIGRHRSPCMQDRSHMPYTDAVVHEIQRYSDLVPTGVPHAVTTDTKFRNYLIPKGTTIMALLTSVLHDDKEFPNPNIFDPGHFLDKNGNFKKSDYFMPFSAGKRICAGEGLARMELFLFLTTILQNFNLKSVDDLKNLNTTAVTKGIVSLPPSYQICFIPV
Nature of the data set: Inhibition of CYP2C8 (unknown origin) at 3 uM relative to control. The data set is classed as ADME.

Data set [5] concerns the target Voltage-gated inwardly rectifying potassium channel KCNH2 (Homo sapiens, UniProt Q12809). In words: Inhibition of human ERG dofetilide binding assay. The data set is classed as toxicity.
The target of another data set is CYP2C9 (Homo sapiens, UniProt P11712). In words: Inhibition of CYP2C9 (unknown origin) at 3 uM relative to control. The data set is classed as ADME.
Chain of CYP2C9 (P11712 whole entry): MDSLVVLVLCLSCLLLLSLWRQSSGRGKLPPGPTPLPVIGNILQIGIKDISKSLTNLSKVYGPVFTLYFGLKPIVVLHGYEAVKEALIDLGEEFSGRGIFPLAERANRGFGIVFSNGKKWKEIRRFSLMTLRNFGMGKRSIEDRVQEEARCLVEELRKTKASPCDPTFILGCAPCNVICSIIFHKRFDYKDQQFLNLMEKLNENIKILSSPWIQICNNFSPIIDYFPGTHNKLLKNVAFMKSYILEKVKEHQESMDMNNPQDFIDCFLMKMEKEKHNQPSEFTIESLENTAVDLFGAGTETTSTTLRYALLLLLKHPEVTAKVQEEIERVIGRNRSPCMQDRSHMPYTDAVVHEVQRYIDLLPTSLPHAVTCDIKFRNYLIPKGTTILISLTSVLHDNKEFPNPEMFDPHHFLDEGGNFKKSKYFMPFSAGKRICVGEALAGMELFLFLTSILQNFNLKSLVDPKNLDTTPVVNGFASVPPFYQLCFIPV
Another data set has as its target CYP3A4 (Homo sapiens, UniProt P08684). In words: Inhibition of CYP3A4 (unknown origin) at 3 uM relative to control. The data set is classed as ADME.
A short description of data set [6]: Lipophilicity, logD of compound. The data set is classed as physicochemical. Conditions: octanol/water.
Data set [7] in a line: Drug metabolism in human hepatocytes assessed as glucuronidation by LC/MS/MS analysis. The data set is classed as ADME, cell-based, Hepatocyte.
The test system of the next data set is PDE3A1. Nature of the data set: Inhibition of PDE3A1 (unknown origin). The data set is classed as toxicity, Homo sapiens.
Data set [8] can be described thus: Drug metabolism in human hepatocytes assessed as oxidation by LC/MS/MS analysis. The data set is classed as ADME, cell-based, Hepatocyte.

The structures appear in SMILES notation.

T1 sequence (P43220 whole entry): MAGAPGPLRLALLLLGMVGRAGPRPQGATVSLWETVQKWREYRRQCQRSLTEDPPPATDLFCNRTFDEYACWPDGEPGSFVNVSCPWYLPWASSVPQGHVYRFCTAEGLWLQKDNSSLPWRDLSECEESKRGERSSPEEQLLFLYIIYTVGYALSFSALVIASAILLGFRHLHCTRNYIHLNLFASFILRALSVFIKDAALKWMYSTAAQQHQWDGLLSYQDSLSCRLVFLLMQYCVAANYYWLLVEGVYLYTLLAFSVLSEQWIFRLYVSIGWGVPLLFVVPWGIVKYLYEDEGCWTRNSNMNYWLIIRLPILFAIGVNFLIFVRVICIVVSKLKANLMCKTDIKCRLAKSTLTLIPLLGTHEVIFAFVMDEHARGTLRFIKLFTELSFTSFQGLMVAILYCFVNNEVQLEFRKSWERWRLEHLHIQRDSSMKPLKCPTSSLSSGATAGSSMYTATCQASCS
Chain of CYP3A4 (P08684 whole entry): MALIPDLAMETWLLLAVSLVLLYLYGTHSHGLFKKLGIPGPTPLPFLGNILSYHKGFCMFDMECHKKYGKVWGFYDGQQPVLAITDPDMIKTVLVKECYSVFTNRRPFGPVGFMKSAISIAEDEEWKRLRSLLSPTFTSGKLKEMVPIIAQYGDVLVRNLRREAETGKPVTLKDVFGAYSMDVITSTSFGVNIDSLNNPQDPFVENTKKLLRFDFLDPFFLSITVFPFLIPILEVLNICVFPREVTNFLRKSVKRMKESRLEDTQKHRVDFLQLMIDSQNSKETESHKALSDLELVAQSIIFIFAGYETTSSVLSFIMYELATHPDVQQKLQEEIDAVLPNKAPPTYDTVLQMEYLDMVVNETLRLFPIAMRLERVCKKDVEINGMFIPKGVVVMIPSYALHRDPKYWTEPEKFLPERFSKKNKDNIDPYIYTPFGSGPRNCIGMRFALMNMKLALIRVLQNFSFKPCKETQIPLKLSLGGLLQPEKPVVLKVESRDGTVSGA
Chain of Voltage-gated inwardly rectifying potassium channel KCNH2 (Q12809 whole entry): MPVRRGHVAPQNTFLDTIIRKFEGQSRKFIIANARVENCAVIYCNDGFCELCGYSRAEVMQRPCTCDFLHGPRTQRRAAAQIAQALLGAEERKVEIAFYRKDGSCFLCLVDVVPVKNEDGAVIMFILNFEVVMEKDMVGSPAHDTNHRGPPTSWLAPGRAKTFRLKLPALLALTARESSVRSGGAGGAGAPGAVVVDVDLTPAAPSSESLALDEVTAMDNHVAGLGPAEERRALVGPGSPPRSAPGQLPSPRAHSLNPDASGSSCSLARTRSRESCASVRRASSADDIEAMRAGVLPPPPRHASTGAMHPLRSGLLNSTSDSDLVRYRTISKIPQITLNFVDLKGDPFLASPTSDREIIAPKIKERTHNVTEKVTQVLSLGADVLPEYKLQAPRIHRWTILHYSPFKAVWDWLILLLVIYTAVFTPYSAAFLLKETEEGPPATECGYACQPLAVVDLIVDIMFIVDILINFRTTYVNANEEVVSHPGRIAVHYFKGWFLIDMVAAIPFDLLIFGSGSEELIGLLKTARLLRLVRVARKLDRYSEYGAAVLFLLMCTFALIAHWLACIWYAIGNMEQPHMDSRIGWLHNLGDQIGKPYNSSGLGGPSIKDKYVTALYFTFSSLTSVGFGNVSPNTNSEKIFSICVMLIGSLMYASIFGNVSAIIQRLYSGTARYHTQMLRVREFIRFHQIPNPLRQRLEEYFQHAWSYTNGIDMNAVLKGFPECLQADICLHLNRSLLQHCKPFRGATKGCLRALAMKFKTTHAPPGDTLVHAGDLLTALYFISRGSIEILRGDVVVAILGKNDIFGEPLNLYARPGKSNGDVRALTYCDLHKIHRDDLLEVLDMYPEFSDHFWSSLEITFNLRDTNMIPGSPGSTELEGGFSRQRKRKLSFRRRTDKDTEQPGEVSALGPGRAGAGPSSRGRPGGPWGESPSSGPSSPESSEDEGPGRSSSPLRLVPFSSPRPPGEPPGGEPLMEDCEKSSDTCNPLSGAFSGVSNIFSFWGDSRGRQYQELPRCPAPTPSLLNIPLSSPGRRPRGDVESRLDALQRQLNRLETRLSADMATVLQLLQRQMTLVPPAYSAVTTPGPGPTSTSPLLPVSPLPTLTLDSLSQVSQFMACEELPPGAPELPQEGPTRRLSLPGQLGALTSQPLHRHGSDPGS

For the compound `Cn1c(CC2CCN(c3nc(OCc4ccc(Cl)cc4F)ncc3F)CC2)nc2ccccc21`, the Activity in data set [1] is 40%.
As to `O=C(O)c1ccc2nc([C@H]3CC34CCN(c3nccc(OCc5ccc(Cl)cc5F)n3)CC4)n(C[C@@H]3CCO3)c2c1`, the hepatocyte CLint in [2] was 30 µL/min/1e6 cells. Moreover, the Papp in data set [3] was determined as 2 ×10⁻⁶ cm/s. Further, the EC50 in data set [4] is 0.032 µM.
Consider `N#Cc1ccc(COc2nc(N3CCC4(CC3)C[C@@H]4c3nc4ccc(C(=O)O)cc4n3C[C@@H]3CCO3)ccc2F)c(F)c1`, for which, in data set [2], the hepatocyte CLint came to 20 µL/min/1e6 cells. The apparent permeability coefficient (Papp) in data set [3] worked out at 5 ×10⁻⁶ cm/s. The same compound showed an EC50 in data set [4] of 0.014 µM.
As to `N#Cc1ccc(COc2ccc(F)c(N3CCC4(CC3)C[C@@H]4c3nc4ccc(C(=O)O)cc4n3C[C@@H]3CCO3)n2)c(F)c1`, the inhibition at 3 µM at CYP1A2 is < 20%; on CYP2D6, < 20%; on CYP2C8, 60%; against CYP2C9 it was < 20%; against CYP3A4, < 20%. Besides, in [2], the hepatocyte CLint worked out at 32 µL/min/1e6 cells. For the same compound, in data set [3], the Papp stood at 6 ×10⁻⁶ cm/s. For the same compound, the Ki in data set [5] is > 40 µM. In [6], this compound yielded a logD of 2.3. Also, the Drug metabolism entry in data set [7] and in data set [8] was “Metabolite_Detected” throughout. The EC50 in [4] was found to be 0.0058 µM. In addition, the half-inhibitory concentration (IC50) in the data set with PDE3A1 came to 0.409 µM.
Take `O=C(O)c1ccc2nc([C@H]3CC34CCN(c3ncc(F)c(OCc5ccc(Cl)cc5F)n3)CC4)n(C[C@@H]3CCO3)c2c1`: the hepatocyte CLint in data set [2] was determined as 27 µL/min/1e6 cells. In addition, in data set [3], the Papp is 3 ×10⁻⁶ cm/s. A half-maximal response in data set [4] (EC50) required 0.019 µM.
As for `Cn1c(CN2CCC(c3nc(OCc4ccc(Cl)cc4F)ncc3F)CC2)nc2ccccc21`, in data set [1], the Activity was found to be 70%.
For `N#Cc1ccc(COc2nc(N3CCC4(CC3)C[C@@H]4c3nc4ccc(C(=O)O)cc4n3C[C@@H]3CCO3)c(F)cc2F)c(F)c1`, in [2], the hepatocyte CLint amounted to 37 µL/min/1e6 cells. In data set [3], the Papp is 5 ×10⁻⁶ cm/s. For the same compound, in data set [4], the EC50 amounted to 0.0041 µM.
In the case of `N#Cc1ccc(COc2cccc(N3CCC4(CC3)C[C@@H]4c3nc4ccc(C(=O)O)cc4n3C[C@@H]3CCO3)n2)c(F)c1`, in data set [2], the hepatocyte CLint was 23 µL/min/1e6 cells. Further, in [3], the Papp stood at 7 ×10⁻⁶ cm/s. Further, in data set [4], the EC50 worked out at 0.015 µM.
Consider `N#Cc1ccc(COc2cccc(C3CCN(Cc4nc5ccc(C(=O)O)cc5n4C[C@@H]4CCO4)CC3)n2)c(F)c1` [DANUGLIPRON], for which, in data set [2], the hepatocyte CLint worked out at 7 µL/min/1e6 cells. Moreover, the Papp in data set [3] turned out to be 10 ×10⁻⁶ cm/s.
For `O=C(O)c1ccc2nc([C@H]3CC34CCN(c3nc(OCc5ccc(Cl)cc5F)ncc3F)CC4)n(C[C@H]3CCO3)c2c1` the same measures were 21 µL/min/1e6 cells and 5 ×10⁻⁶ cm/s.
In the case of `O=C(O)c1ccc2nc([C@H]3CC34CCN(c3nc(OCc5ccc(Cl)cc5F)ncc3F)CC4)n(C[C@@H]3CCO3)c2n1`, the hepatocyte CLint in data set [2] is 14 µL/min/1e6 cells. For the same compound, the Papp in data set [3] was found to be 7 ×10⁻⁶ cm/s. This compound also gave an EC50 in [4] of 0.015 µM.
On to `Cn1c(CC2CCN(c3nc(OCc4ccc(Cl)cc4F)ncc3F)CC2)nc2ncccc21`, for which the Activity in data set [1] amounted to 75%.

In general, Papp refers to a coefficient for how fast a substance crosses the barrier. The term EC50 denotes the midpoint of the concentration-response curve. What is called inhibition is the percentage by which the read-out fell short of the control. High values mean strong suppression, low ones little suppression. A word on the Ki: it is a measure of affinity in units of concentration, obtained from inhibition or displacement. Higher therefore signals weaker binding. Broadly, the logD is the decadic logarithm of the distribution of all forms, ionised or not, between an organic phase and buffer at a given pH. As a reminder, the IC50 is the midpoint of a concentration-inhibition curve.
